The text below walks through data of ChEMBL document CHEMBL1122047.

Several values for one entry are separate records, joined by “and”; a condition that tells them apart may be missing. Equal entries are not always repeated.

The target of this assay is Substance-P receptor (Cavia porcellus) (UniProt P30547). Description: Relative affinity for Tachykinin receptor 1 compared with [Nle11]-SP.
Substance-P receptor (Cavia porcellus), sequence (P30547 whole entry): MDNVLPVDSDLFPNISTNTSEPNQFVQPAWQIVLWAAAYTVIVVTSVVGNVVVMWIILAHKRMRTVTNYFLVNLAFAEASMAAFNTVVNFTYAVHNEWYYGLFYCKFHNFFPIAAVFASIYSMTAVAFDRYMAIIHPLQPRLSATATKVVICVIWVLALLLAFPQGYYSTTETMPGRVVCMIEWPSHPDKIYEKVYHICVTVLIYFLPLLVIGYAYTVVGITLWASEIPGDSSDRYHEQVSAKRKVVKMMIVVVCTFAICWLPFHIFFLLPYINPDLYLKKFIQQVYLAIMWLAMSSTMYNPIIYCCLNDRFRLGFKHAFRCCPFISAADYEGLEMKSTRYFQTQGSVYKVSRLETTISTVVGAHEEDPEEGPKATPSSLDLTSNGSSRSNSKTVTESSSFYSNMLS
On to `CC(C)C[C@H](NC(=O)CNC(=O)[C@H](Cc1ccccc1)NC(=O)[C@H](Cc1ccccc1)NC(=O)[C@H](CCC(N)=O)NC(=O)[C@H](CCC(N)=O)NC(=O)[C@@H]1CCCN1C(=O)[C@H](CCCCN)NC(=O)[C@@H]1CCCN1C(=O)[C@@H](N)CCCN=C(N)N)C(=O)N[C@@H](Cc1ccc([N+]#N)cc1)C(N)=O`, for which the RA is 81% and 72%. Next, `CCCC[C@H](NC(=O)[C@H](CC(C)C)NC(=O)CNC(=O)[C@H](Cc1ccccc1)NC(=O)[C@H](Cc1ccccc1)NC(=O)[C@H](CCC(N)=O)NC(=O)[C@H](CCC(N)=O)NC(=O)[C@@H]1CCCN1C(=O)[C@H](CCCCN)NC(=O)[C@@H]1CCCN1C(=O)[C@@H](N)CCCN=C(N)N)C(N)=O`: 100%; `CC(C)C[C@H](NC(=O)CNC(=O)[C@H](Cc1ccccc1)NC(=O)[C@H](Cc1ccccc1)NC(=O)[C@H](CCC(N)=O)NC(=O)[C@H](CCC(N)=O)NC(=O)[C@@H]1CCCN1C(=O)[C@H](CCCCN)NC(=O)[C@@H]1CCCN1C(=O)[C@@H](N)CCCN=C(N)N)C(=O)N[C@@H](Cc1ccccc1)C(N)=O`: 100%; `CC(C)C[C@H](NC(=O)CNC(=O)[C@H](Cc1ccccc1)NC(=O)[C@H](Cc1ccccc1)NC(=O)[C@H](CCC(N)=O)NC(=O)[C@H](CCC(N)=O)NC(=O)[C@@H]1CCCN1C(=O)[C@H](CCCCN)NC(=O)[C@@H]1CCCN1C(=O)[C@@H](N)CCCN=C(N)N)C(=O)N[C@@H](Cc1ccc(N)cc1)C(N)=O`: 55% and 69%.

As to `CC(C)C[C@H](NC(=O)CNC(=O)[C@H](Cc1ccccc1)NC(=O)[C@H](Cc1ccccc1)NC(=O)[C@H](CCC(N)=O)NC(=O)[C@H](CCC(N)=O)NC(=O)[C@@H]1CCCN1C(=O)[C@H](CCCCN)NC(=O)[C@@H]1CCCN1C(=O)[C@@H](N)CCCN=C(N)N)C(=O)N[C@@H](Cc1ccc(N=[N+]=[N-])cc1)C(N)=O`, the RA was 48% and 50%. As to `CCCC[C@H](NC(=O)[C@H](CC(C)C)NC(=O)CNC(=O)[C@H](Cc1ccc(N=[N+]=[N-])cc1)NC(=O)[C@H](Cc1ccccc1)NC(=O)[C@H](CCC(N)=O)NC(=O)[C@H](CCC(N)=O)NC(=O)[C@@H]1CCCN1C(=O)[C@H](CCCCN)NC(=O)[C@@H]1CCCN1C(=O)[C@@H](N)CCCN=C(N)N)C(N)=O`, the RA was 50%. Then `CCCC[C@H](NC(=O)[C@H](CC(C)C)NC(=O)CNC(=O)[C@H](Cc1ccccc1)NC(=O)[C@H](Cc1ccc([N+](=O)[O-])cc1)NC(=O)[C@H](CCC(N)=O)NC(=O)[C@H](CCC(N)=O)NC(=O)[C@@H]1CCCN1C(=O)[C@H](CCCCN)NC(=O)[C@@H]1CCCN1C(=O)[C@@H](N)CCCN=C(N)N)C(N)=O`, with 10%.
